pEC50: −log10 of the molar value.
Target: Glycogen synthase kinase-3 beta (Homo sapiens, UniProt P49841)
Experiment: GSK3beta kinase inhibitor potency, dose response, biochemical, luminescence, cell-free homogeneous, retest (AID 434954)

Chain of Glycogen synthase kinase-3 beta (P49841 whole entry): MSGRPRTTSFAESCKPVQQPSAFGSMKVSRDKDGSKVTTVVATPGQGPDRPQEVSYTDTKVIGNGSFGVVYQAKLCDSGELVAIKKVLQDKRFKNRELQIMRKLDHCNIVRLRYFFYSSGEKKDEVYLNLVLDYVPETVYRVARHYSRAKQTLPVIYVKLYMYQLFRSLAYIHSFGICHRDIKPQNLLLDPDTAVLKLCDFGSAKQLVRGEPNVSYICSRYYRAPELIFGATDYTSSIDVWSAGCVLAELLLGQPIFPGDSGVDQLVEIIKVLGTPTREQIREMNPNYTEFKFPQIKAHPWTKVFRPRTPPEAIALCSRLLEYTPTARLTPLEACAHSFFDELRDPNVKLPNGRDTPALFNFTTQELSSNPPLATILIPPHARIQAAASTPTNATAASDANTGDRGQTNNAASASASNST

| SMILES | pEC50 |
| --- | --- |
| O=[N+]([O-])c1ccc(-n2nnnc2-c2ccccc2)c([N+](=O)[O-])c1 [1-{2,4-bisnitrophenyl}-5-phenyl-1H-tetraazole] | < 3.52 |
| CC(=O)Nc1ccc(Cc2nc3c([nH]2)c(=O)n(C)c(=O)n3C)cc1 [SMR000528148] | < 3.52 |
| Cc1nnc2n(-c3ccccc3)c(=O)c3c4c(sc3n12)CCCC4 [MLS000071277] | < 3.52 |
| O=C(OCCN1CCCCC1)c1ccc(O)cc1 [4-hydroxybenzoic acid 2-(1-piperidinyl)ethyl ester] | < 3.52 |
| N#Cc1c(O)nc(SCC(=O)Nc2ccc(OC(F)(F)Cl)cc2)nc1-c1ccccc1 [N-{4-[chloro(difluoro)methoxy]phenyl}-2-[(5-cyano-6-oxo-4-phenyl-1,6-dihydropyrimidin-2-yl)thio]acetamide] | < 3.52 |
| CCCc1cc(=O)oc2cc(C)c3c(C)coc3c12 [MLS000112563] | < 3.52 |
| O=C(COc1ccccc1)N1CCN(S(=O)(=O)c2cccs2)CC1 [1-(phenoxyacetyl)-4-(2-thienylsulfonyl)piperazine] | < 3.52 |
| Fc1ccccc1CNc1nc(-c2cccnc2)nc2ccccc12 [N-[(2-fluorophenyl)methyl]-2-pyridin-3-ylquinazolin-4-amine] | < 3.52 |
| C[O+]=N[CH-]c1ccc(N2CCOCC2)c([N+](=O)[O-])c1 [N-methoxy-1-(4-morpholin-4-yl-3-nitro-phenyl)methanimine] | < 3.52 |
| COc1ccc(CNC(=O)CN(Cc2ccc(OC)cc2)C(=O)CCC(=O)Nc2ccccn2)cc1 [SMR000600506] | 4.28 |
| NC(=O)c1c(NC(=O)CCCn2cnc([N+](=O)[O-])n2)sc2c1CCCC2 [2-{[4-(3-nitro-1H-1,2,4-triazol-1-yl)butanoyl]amino}-4,5,6,7-tetrahydro-1-benzothiophene-3-carboxamide] | 3.98 |
| COC(=O)C1=C(C)N(CCc2cc(OC)c(OC)c(OC)c2)C(=O)N[C@H]1c1ccccc1 [methyl (6S)-4-methyl-2-oxo-6-phenyl-3-[2-(3,4,5-trimethoxyphenyl)ethyl]-1,6-dihydropyrimidine-5-carboxylate] | < 3.52 |
| Cc1cccc(Nc2nc(NCc3ccco3)nc(N)c2[N+](=O)[O-])c1 [2-N-(furan-2-ylmethyl)-4-N-(3-methylphenyl)-5-nitropyrimidine-2,4,6-triamine] | 4.19 |
| Cc1ccc(N(c2ncnc(N)c2[N+](=O)[O-])C2CCCCC2)cc1 [N-cyclohexyl-N-(4-methylphenyl)-5-nitro-4,6-pyrimidinediamine] | < 3.52 |
| Cc1nnc(SCC(=O)Nc2nccs2)n(N)c1=O [SMR000323668] | < 3.52 |
| CC(=O)Nc1nnc(CSCc2ccc(F)cc2)s1 [N-[5-[(4-fluorophenyl)methylsulfanylmethyl]-1,3,4-thiadiazol-2-yl]acetamide] | < 3.52 |
| CNc1nc(N)c([N+](=O)[O-])c(Nc2cccc(Cl)c2)n1 [SMR000434546] | 4.93 |
| Clc1ccccc1CN1CCN(c2cccc3[nH]ccc23)CC1 [4-[4-[(2-chlorophenyl)methyl]piperazin-1-yl]-1H-indole] | < 3.52 |
| CC(Cl)C(=O)Nc1ncc(C(F)(F)F)cc1Cl (stereo not drawn) [SMR000152526] | < 3.52 |
| COc1ccc(CCNc2nc(-c3ccc(O)cc3)cs2)cc1OC [SMR000502906] | < 3.52 |
| CCCCn1nc(NC(=O)CC)c2cc3cc(OC)ccc3nc21 [N-(1-butyl-6-methoxy-pyrazolo[3,4-b]quinolin-3-yl)propanamide] | 4.36 |
| COc1cccc2c1cc1c(=O)n(CC(=O)NC3CCCCC3)nc(C)n12 [N-cyclohexyl-2-(9-methoxy-4-methyl-1-oxidanylidene-[1,2,4]triazino[4,5-a]indol-2-yl)ethanamide] | < 3.52 |

| SMILES | pEC50 |
| --- | --- |
| COc1ccc(CC(=O)OCC(=O)Nc2ccc(Cl)cn2)cc1 [MLS000566076] | 3.97 |
| O=C(Nc1ccc(O)c2c(=O)cc(-c3ccccc3Cl)oc12)c1cccc(Cl)c1 | 4.06 |
| Nc1nc(NCCO)nc(NCc2ccccc2)c1[N+](=O)[O-] [2-[[4-amino-6-(benzylamino)-5-nitropyrimidin-2-yl]amino]ethanol] | 4.69 |
| Nc1nc(Nc2ccccc2)sc1C(=O)c1ccccc1 [(4-azanyl-2-phenylazanyl-1,3-thiazol-5-yl)-phenyl-methanone] | 6.77 |
| Nc1nc(Nc2ccccc2)nc(N2CCOCC2)c1[N+](=O)[O-] [SMR000219795] | 4.69 |
| O=C(O)CCN1C(=O)/C(=C\c2ccc(-c3nc4ccccc4s3)o2)SC1=S [3-[(5E)-5-[[5-(1,3-benzothiazol-2-yl)-2-furanyl]methylidene]-4-oxo-2-sulfanylidene-3-thiazolidinyl]propanoic acid] | < 3.52 |
| O=C(Nc1sccc1C(=O)N1CCOCC1)c1cccnc1 [N-[3-[4-morpholinyl(oxo)methyl]-2-thiophenyl]-3-pyridinecarboxamide] | 4.53 |
| CCOC(=O)N1CCC(NC(=O)c2cc3sccc3n2CC)CC1 [MLS000093129] | < 3.52 |
| Cc1ccc(-c2nnc(SCc3ccccc3F)o2)cc1 [2-[(2-fluorobenzyl)thio]-5-(4-methylphenyl)-1,3,4-oxadiazole] | < 3.52 |
| Cc1ccc(OCC(=O)NN=C2SCC(=O)N2Cc2ccccc2)cc1 [2-(4-methylphenoxy)-N-[[4-oxo-3-(phenylmethyl)-2-thiazolidinylidene]amino]acetamide] | < 3.52 |
| CCC(C)NC(=O)CNC(=S)N(CCCN1CCOCC1)Cc1cccs1 (stereo not drawn) [N-butan-2-yl-2-[[3-morpholin-4-ylpropyl(thiophen-2-ylmethyl)carbamothioyl]amino]ethanamide] | < 3.52 |
| Cc1nnc2n(-c3ccccc3)c(=O)c3c4c(sc3n12)CC(C)CC4 (stereo not drawn) [MLS000030539] | < 3.52 |
| O=C(CN1C(=O)CCC1=O)Nc1cccc(NC(=O)CN2C(=O)CCC2=O)c1 [2-(2,5-dioxo-1-pyrrolidinyl)-N-[3-[[2-(2,5-dioxo-1-pyrrolidinyl)-1-oxoethyl]amino]phenyl]acetamide] | < 3.52 |
| COc1ccc(CNC(=O)CN(Cc2ccccc2)C(=O)CCC(=O)Nc2nccs2)cc1 [N'-[2-[(4-methoxyphenyl)methylamino]-2-oxoethyl]-N'-(phenylmethyl)-N-(2-thiazolyl)butanediamide] | 4.95 |
| COC(=O)c1nnn(-c2nonc2N)c1CSCCO [1-(4-amino-1,2,5-oxadiazol-3-yl)-5-[(2-hydroxyethylthio)methyl]-4-triazolecarboxylic acid methyl ester] | 5.21 |
| CC(=O)N1CCc2c(sc(NC(=O)CN3C(=O)c4ccccc4C3=O)c2C(N)=O)C1 [MLS000419451] | 4.71 |
| CCCCc1cc(=O)oc2cc(C)cc(OCc3nn[nH]n3)c12 [MLS000041678] | < 3.52 |
| Nc1nonc1-n1nnc(C(=O)NN=Cc2ccccc2O)c1CN1CCCC1 [1-(4-amino-1,2,5-oxadiazol-3-yl)-N'-[(E)-(6-oxo-1-cyclohexa-2,4-dienylidene)methyl]-5-(1-pyrrolidinylmethyl)-4-triazolecarbohydrazide] | 4.61 |
| COc1cccc2c1cc1c(=O)n(CC(=O)NCCCc3ccccc3)nc(C)n12 [MLS001076397] | < 3.52 |
| COc1ccc(Nc2nc(Nc3ccc(OC)cc3)nc(-n3[nH]c(=O)c(C)c3C)n2)cc1 [2-[4,6-bis(4-methoxyanilino)-1,3,5-triazin-2-yl]-3,4-dimethyl-1H-pyrazol-5-one] | < 3.52 |
| COc1cc(OC)c2c(-c3ccccc3)cc(=O)oc2c1 [5,7-dimethoxy-4-phenyl-chromen-2-one] | < 3.52 |

From BindingDB's records for doi:10.7270/Q2TX3CTT (Broad Institute, 2010)
